Structures can show the parent of a compound that is named as a salt.
What follows are compounds tested on LNCaP cells (assay: LNCaP cell viability assay (MTS)). Settings: Homo sapiens, LNCaP cell line, 48 hours.
Format: cell-based
Procedure, shortened: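 GI50 derived by nonlinear four-parameter curve fitting (bottom fixed at zero) of MTS viability data. Prostate LNCaP cells seeded at 5000/well were given compound doses from 1 to 80 µM one day after plating and assayed after 48 h of exposure.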

Compound	GI50 [µM]
CN(C)CC(NS(=O)(=O)c1ccc([N+](=O)[O-])c(OC(F)(F)F)c1)c1ccc(Cl)c(Cl)c1 (stereo not drawn) [Compound 222, N-(1-(3,4-dichlorophenyl)-2-(dimethylamino)ethyl)-4-nitro-3-(trifluoromethoxy)benzenesulfonamide]	1.34

Same assay, conditions: Homo sapiens, LNCaP, 48 h, LNCaP cell line

GI50 [µM]	Compound
13.3	CN(C)CC(NS(=O)(=O)c1ccc(Oc2ccccc2)cc1)c1ccc(Cl)c(Cl)c1 (single isomer, unassigned) [Compound 170, N-(1-(3,4-dichlorophenyl)-2-(dimethylamino)ethyl)-4-phenoxybenzenesulfonamide]
15.5	CN(C)CC(NS(=O)(=O)c1ccc(NC2CCCCC2)cc1)c1ccc(Cl)c(Cl)c1 (stereo not drawn) [Compound 268, 4-(cyclohexylamino)-N-(1-(3,4-dichlorophenyl)-2-(dimethylamino)ethyl)benzenesulfonamide]
45.7	CN(C)CC(NS(=O)(=O)c1ccc(OC(F)F)cc1)c1ccc(Cl)c(Cl)c1 (stereo not drawn) [Compound 153, N-(1-(3,4-dichlorophenyl)-2-(dimethylamino)ethyl)-4-(difluoromethoxy)benzenesulfonamide]
3.23	CN(C)CC(NS(=O)(=O)c1ccc(OC(F)(F)F)c([N+](=O)[O-])c1)c1ccc(Cl)c(Cl)c1 (stereo not drawn) [Compound 175, N-(1-(3,4-dichlorophenyl)-2-(dimethylamino)ethyl)-3-nitro-4-(trifluoromethoxy)benzenesulfonamide]
14.4	CN(C)CC(NS(=O)(=O)c1ccc(OC(F)(F)F)c(Cl)c1)c1ccc(Cl)cc1 (stereo not drawn) [Compound 192, 3-chloro-N-(1-(4-chlorophenyl)-2-(dimethylamino)ethyl)-4-(trifluoromethoxy)benzenesulfonamide]
31.9	CCCOC1CCN(CC(NS(=O)(=O)c2ccc(OC(F)(F)F)cc2)c2ccc(Cl)c(Cl)c2)CC1 (stereo not drawn) [Compound 241, N-(1-(3,4-dichlorophenyl)-2-(4-propoxypiperidin-1-yl)ethyl)-4-(trifluoromethoxy)benzenesulfonamide]
48.2	CN(C)CC(NS(=O)(=O)c1ccc(C(=O)Nc2ccccc2)cc1)c1ccc(Cl)c(Cl)c1 (stereo not drawn) [Compound 186, 4-(N-(1-(3,4-dichlorophenyl)-2-(dimethylamino)ethyl)sulfamoyl)-N-phenylbenzamide]
12.2	CN(C)CC(NS(=O)(=O)c1ccc(Oc2ccc(C(F)(F)F)cc2)cc1)c1ccc(Cl)cc1 (stereo not drawn) [Compound 194, N-(1-(4-chlorophenyl)-2-(dimethylamino)ethyl)-4-(4-(trifluoromethyl)phenoxy)benzenesulfonamide]
12.3	CN1CCN(CC(NS(=O)(=O)c2ccc(Oc3ccccc3)cc2)c2ccc(Cl)c(Cl)c2)CC1 (stereo not drawn) [Compound 236, N-(1-(3,4-dichlorophenyl)-2-(4-methylpiperazin-1-yl)ethyl)-4-phenoxybenzenesulfonamide]
21.8	NCC(NS(=O)(=O)c1ccc(OC(F)(F)F)cc1)c1ccc(Cl)c(Cl)c1 (stereo not drawn) [Compound 225, N-(2-amino-1-(3,4-dichlorophenyl)ethyl)-4-(trifluoromethoxy)benzenesulfonamide hydrochloride]
12.1	CN(C)CC(NS(=O)(=O)c1ccc(OC(F)(F)F)c(Cl)c1)c1ccc(Cl)c(Cl)c1 (stereo not drawn) [Compound 152, 3-chloro-N-(1-(3,4-dichlorophenyl)-2-(dimethylamino)ethyl)-4-(trifluoromethoxy)benzenesulfonamide]
22.8	CN(C)C[C@H](Cc1ccc(Cl)c(Cl)c1)NS(=O)(=O)c1ccc(OC(F)(F)F)cc1 [Compound 247, (S)—N-(1-(3,4-dichlorophenyl)-3-(dimethylamino)propan-2-yl)-4-(trifluoromethoxy)benzenesulfonamide]
59.9	O=S(=O)(NCC1(c2ccc(Cl)cc2)CC1)c1ccc(OC(F)(F)F)cc1 [Compound 228, N-((1-(4-chlorophenyl)cyclopropyl)methyl)-4-(trifluoromethoxy)benzenesulfonamide]
24.6	CN(C)CC(NS(=O)(=O)c1ccc(OC(F)(F)F)c(C#N)c1)c1ccc(Cl)c(Cl)c1 (stereo not drawn) [Compound 240, 3-cyano-N-(1-(3,4-dichlorophenyl)-2-(dimethylamino)ethyl)-4-(trifluoromethoxy)benzenesulfonamide]

Further lines, the compound ahead of its results:

Compound	GI50 [µM]
O=S(=O)(N[C@H](CO)c1ccc(Cl)c(Cl)c1)c1ccc(OC(F)(F)F)cc1 [Compound 122, (S)—N-(1-(3,4-dichlorophenyl)-2-hydroxyethyl)-4-(trifluoromethoxy)benzenesulfonamide]	43.4
O=S(=O)(NCc1cc(Cl)ccc1OC(F)F)c1ccc(OC(F)(F)F)cc1 [Compound 62, N-(5-chloro-2-(difluoromethoxy)benzyl)-4-(trifluoromethoxy)benzenesulfonamide]	70
CC(C)(C)OC(=O)N1CC(F)(F)CC1CNS(=O)(=O)c1ccc(OC(F)(F)F)cc1 (stereo not drawn) [Compound 65, Tert-butyl 4,4-difluoro-2-(((4-(trifluoromethoxy)phenyl)sulfonamido)methyl)pyrrolidine-1-carboxylate]	43
COC(=O)C(Cc1ccc(O)c(F)c1)NS(=O)(=O)c1ccc(OC(F)(F)F)cc1 (stereo not drawn) [Compound 112, Methyl 3-(3-fluoro-4-hydroxyphenyl)-2-((4-(trifluoromethoxy)phenyl)sulfonamido)propanoate]	38
CCOC(=O)CC(NS(=O)(=O)c1ccc(OC(F)(F)F)cc1)c1ccc(OC(C)C)c(OC)c1 (stereo not drawn) [Compound 68, Ethyl 3-(4-isopropoxy-3-methoxyphenyl)-3-((4-(trifluoromethoxy)phenyl)sulfonamido)propanoate]	72
CCOC(=O)CC(NS(=O)(=O)c1ccc(OC(F)(F)F)cc1)c1ccc(OCC)cc1 (stereo not drawn) [Compound 25]	75.6
O=S(=O)(NC(CC(F)(F)F)c1ccccc1)c1ccc(OC(F)(F)F)cc1 (stereo not drawn) [Compound 8, N-(3,3,3-trifluoro-1-phenylpropyl)-4-(trifluoromethoxy)benzenesulfonamide]	38.1
CCc1ccc(C(NS(=O)(=O)c2ccc(OC(F)(F)F)cc2)C(C)(C)C)o1 (stereo not drawn) [Compound 17, N-(1-(5-ethylfuran-2-yl)-2,2-dimethylpropyl)-4-(trifluoromethoxy)benzenesulfonamide]	55.6
Cc1ccccc1S(=O)(=O)NC(CN(C)C)c1ccc(Cl)c(Cl)c1 (stereo not drawn) [Compound 131, N-(1-(3,4-dichlorophenyl)-2-(dimethylamino)ethyl)-2-methylbenzenesulfonamide]	49
CC(C)(C)OC(=O)NC[C@H](NS(=O)(=O)c1ccc(OC(F)(F)F)cc1)c1ccccc1 [Compound 114, tert-butyl (R)-(2-phenyl-2-((4-(trifluoromethoxy)phenyl)sulfonamido)ethyl)carbamate]	42.5
O=S(=O)(NC(CC1CC1)c1ccccc1)c1ccc(OC(F)(F)F)cc1 (stereo not drawn) [Compound 19, N-(2-cyclopropyl-1-phenylethyl)-4-(trifluoromethoxy)benzenesulfonamide]	51.9
O=S(=O)(NC(c1ccc(Cl)cc1)C1CCCC1)c1ccc(OC(F)(F)F)cc1 (stereo not drawn) [Compound 86, N-((4-chlorophenyl)(cyclopentyl)methyl)-4-(trifluoromethoxy)benzenesulfonamide]	75
COC(=O)CC(NS(=O)(=O)c1ccc(OC(F)(F)F)cc1)c1ccc(OC)c(Br)c1 (stereo not drawn) [Compound 22]	39.1
CCCc1ccc(S(=O)(=O)NC(CN(C)C)c2ccc(Cl)c(Cl)c2)cc1 (stereo not drawn) [Compound 137, N-(1-(3,4-dichlorophenyl)-2-(dimethylamino)ethyl)-4-propylbenzenesulfonamide]	12.3
Cc1cccc(CC(CO)NS(=O)(=O)c2ccc(OC(F)(F)F)cc2)c1 (stereo not drawn) [Compound 9, N-(1-hydroxy-3-(m-tolyl)propan-2-yl)-4-(trifluoromethoxy)benzenesulfonamide]	24.1
CC(C)(C)Oc1ccccc1CNS(=O)(=O)c1ccc(OC(F)(F)F)cc1 [Compound 78, N-(2-(tert-butoxy)benzyl)-4-(trifluoromethoxy)benzenesulfonamide]	46
CCOc1ccccc1CNS(=O)(=O)c1ccc(OC(F)(F)F)cc1 [Compound 76, N-(2-ethoxybenzyl)-4-(trifluoromethoxy)benzenesulfonamide]	60
CN(C)CC(NS(=O)(=O)c1cccc2ccccc12)c1ccc(Cl)c(Cl)c1 (stereo not drawn) [Compound 145, N-(1-(3,4-dichlorophenyl)-2-(dimethylamino)ethyl)naphthalene-1-sulfonamide]	21.7
CCc1ccc(C(CNS(=O)(=O)c2ccc(OC(F)(F)F)cc2)N2CCCC2)cc1 (stereo not drawn) [Compound 28, N-(2-(4-ethylphenyl)-2-(pyrrolidine-1-yl)ethyl)-4-(trifluoromethoxy)benzenesulfonamide]	55.8
Cc1ccccc1C(CN(C)C)NS(=O)(=O)c1ccc(OC(F)(F)F)cc1 (stereo not drawn) [Compound 150, N-(2-(dimethylamino)-1-(o-tolyl)ethyl)-4-(trifluoromethoxy)benzenesulfonamide]	59.6
CC[C@H](C)[C@H](NS(=O)(=O)c1ccc(OC(F)(F)F)cc1)C(=O)OC(C)(C)C [Compound 7, Tert-butyl ((4-(trifluoromethoxy)phenyl)sulfonyl)-L-isoleucinate]	57.9

Same assay, conditions: LNCaP cell line, 48 hours

GI50 [µM]	Compound
17.8	CCCc1ccc(S(=O)(=O)NC(CN(C)C)c2ccc(Cl)c(Cl)c2)cc1 (single isomer, unassigned) [Compound 200, N-(1-(3,4-dichlorophenyl)-2-(dimethylamino)ethyl)-4-propylbenzenesulfonamide]
6.04	CN(C)CC(NS(=O)(=O)c1ccc(Oc2ccc(C(F)(F)F)cc2)cc1)c1ccc(Cl)c(Cl)c1 (single isomer, unassigned) [Compound 172, N-(1-(3,4-dichlorophenyl)-2-(dimethylamino)ethyl)-4-(4-(trifluoromethyl)phenoxy)benzenesulfonamide]
53.8	CN(C)CC(NS(=N)(=O)c1ccc(OC(F)(F)F)cc1)c1ccc(Cl)c(Cl)c1 (single isomer, unassigned) [Compound 165b, N-(1-(3,4-dichlorophenyl)-2-(dimethylamino)ethyl)-4-(trifluoromethoxy)benzenesulfonimidamide]

— US20240174603A1 (Rappta Therapeutics Oy, priority 2021, published 2024)
